Consider 23 compounds from US20240217990A1 (Gilead Sciences, Inc., priority 2021, published 2024).

In one experiment the target is T1, TLR8 (Homo sapiens, UniProt Q9NR97).
T1 construct: Human peripheral blood mononuclear cells (PBMCs) consist of lymphocytes, monocytes and dendritic cells that express TLR7, TLR8 and TLR9; endogenous in cells; host or cells: cryopreserved human PBMCs from healthy donors
T1 sequence (Q9NR97 27-1041): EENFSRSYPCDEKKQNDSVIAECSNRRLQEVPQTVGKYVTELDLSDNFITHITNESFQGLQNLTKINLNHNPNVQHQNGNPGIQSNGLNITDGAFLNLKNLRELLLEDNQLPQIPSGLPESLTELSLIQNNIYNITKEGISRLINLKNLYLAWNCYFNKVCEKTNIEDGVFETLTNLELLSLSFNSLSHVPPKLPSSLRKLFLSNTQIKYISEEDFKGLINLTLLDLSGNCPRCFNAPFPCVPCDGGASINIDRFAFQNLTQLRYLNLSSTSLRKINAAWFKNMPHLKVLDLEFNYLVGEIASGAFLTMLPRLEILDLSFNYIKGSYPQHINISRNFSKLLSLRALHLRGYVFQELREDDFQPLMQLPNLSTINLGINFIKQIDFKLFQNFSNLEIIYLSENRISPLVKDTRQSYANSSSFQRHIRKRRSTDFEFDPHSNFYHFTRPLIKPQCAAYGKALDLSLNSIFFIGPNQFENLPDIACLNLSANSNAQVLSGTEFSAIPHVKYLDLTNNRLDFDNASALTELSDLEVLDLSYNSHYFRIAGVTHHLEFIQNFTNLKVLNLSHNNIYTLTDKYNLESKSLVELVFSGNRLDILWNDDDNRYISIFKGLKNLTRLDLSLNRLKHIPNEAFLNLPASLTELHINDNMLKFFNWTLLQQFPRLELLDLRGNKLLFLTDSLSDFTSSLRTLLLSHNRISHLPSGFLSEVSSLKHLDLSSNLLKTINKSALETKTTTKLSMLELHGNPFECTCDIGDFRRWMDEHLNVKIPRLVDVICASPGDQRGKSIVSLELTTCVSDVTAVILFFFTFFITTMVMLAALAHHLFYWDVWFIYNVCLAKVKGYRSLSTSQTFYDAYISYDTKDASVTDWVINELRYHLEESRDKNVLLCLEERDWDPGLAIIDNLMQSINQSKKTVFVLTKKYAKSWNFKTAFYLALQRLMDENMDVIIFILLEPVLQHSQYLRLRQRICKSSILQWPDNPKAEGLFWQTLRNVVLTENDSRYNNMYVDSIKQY
Kind of experiment: TLR8 human PBMC cell-based assay (antagonist, Compound A stimulated cytokine release). The settings on record: human PBMCs; TLR8 agonist Compound A 800 nM, 6 hours; cytokines (TNFa and IL 12p40) in supernatant; read-out: TLR-8 EC50. From the text: (§1) Human peripheral blood mononuclear cells (PBMCs) consist of lymphocytes, monocytes and dendritic cells that express TLR7, TLR8 and TLR9. These cells respond to TLR7, TLR8 and TLR9 ligand stimulation and produce cytokines and chemokines in vitro and in vivo. Human PBMCs are therefore suitable to be used in a cell-based assay to assess the in vitro potency of a TLR 7, 8, and/or 9 antagonist. The result is expected to be more translatable to the pharmacodynamics response in vivo than cell line-based assays.
Cryopreserved human PBMCs from healthy donors were thawed and resuspended in RPMI-1640 media with L-glutamine (Corning) supplemented with 10% Fetal Bovine Serum (Hyclone) and 1X Penicillin-Streptomycin (Corning). After counting, the cell density was adjusted to 2 million cells/ml and incubated for 1 hour at 37° C., 5% CO2 for recovery. Following the recovery, the cells were plated by adding 50 μl per well (100,000 cells) to 384-well cell culture plates (Greiner) containing 250 nl of test antagonists in 100% DMSO per well, in a 10 points dose response in quadruplicates. PBMCs were incubated in the presence of antagonists for one hour at 37° C., 5% CO2 before being stimulated with TLR8 agonist. Compound A (Gilead Sciences, U.S. Pat. No. 10,285,990) was used as the TLR8 agonist at a final concentration of 800 nM. PBMCs were incubated in the presence of antagonist and the TLR8 agonist for an additional 6 hours at 37° C., 5% CO2. At the end of the incubation, the cell culture plates were centrifuged at 500 g for 5 min, and the cell culture supernatant was collected. The level of cytokines (TNFa and IL 12p40) in the supernatant was measured by electrochemiluminescence immunoassays (Mesoscale Discovery) following manufacturer's recommended protocols. The level of cytokine measured was plotted against the antagonist concentration and fitted to a sigmoidal function to determine the EC50, which are shown below in Table 11.

A further experiment has as its target T2, TLR7 (Homo sapiens, UniProt Q9NYK1).
T2 construct: Human peripheral blood mononuclear cells (PBMCs) consist of lymphocytes, monocytes and dendritic cells that express TLR7, TLR8 and TLR9; endogenous in cells; host or cells: cryopreserved human PBMCs from healthy donors
T2 sequence (Q9NYK1 27-1049): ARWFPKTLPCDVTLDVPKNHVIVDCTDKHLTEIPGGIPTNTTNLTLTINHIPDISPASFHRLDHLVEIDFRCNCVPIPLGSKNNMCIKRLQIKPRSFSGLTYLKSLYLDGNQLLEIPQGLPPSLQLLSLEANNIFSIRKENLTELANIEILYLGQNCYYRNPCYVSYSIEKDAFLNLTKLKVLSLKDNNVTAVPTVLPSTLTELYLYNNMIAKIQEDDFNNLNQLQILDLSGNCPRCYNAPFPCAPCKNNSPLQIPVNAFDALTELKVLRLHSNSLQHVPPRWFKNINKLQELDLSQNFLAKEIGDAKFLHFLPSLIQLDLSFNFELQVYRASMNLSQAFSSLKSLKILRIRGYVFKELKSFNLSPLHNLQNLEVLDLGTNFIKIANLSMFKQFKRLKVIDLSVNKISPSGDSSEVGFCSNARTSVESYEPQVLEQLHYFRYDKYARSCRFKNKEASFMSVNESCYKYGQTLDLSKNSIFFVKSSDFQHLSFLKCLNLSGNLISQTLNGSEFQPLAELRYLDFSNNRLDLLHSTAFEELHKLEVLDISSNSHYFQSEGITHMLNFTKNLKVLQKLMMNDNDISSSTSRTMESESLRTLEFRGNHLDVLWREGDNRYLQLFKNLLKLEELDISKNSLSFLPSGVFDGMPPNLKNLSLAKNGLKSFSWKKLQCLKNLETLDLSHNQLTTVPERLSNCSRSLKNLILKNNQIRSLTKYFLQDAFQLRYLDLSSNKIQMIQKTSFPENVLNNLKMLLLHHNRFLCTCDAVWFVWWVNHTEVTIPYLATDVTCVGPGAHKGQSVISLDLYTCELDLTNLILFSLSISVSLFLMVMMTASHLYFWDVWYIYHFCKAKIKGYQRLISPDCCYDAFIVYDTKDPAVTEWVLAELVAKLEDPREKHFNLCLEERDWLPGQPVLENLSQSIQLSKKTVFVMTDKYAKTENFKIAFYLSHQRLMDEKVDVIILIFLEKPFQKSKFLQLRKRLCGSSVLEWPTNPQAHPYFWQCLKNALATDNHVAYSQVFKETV
Kind of experiment: TLR7 human PBMC cell-based assay (antagonist, GS-986 stimulated cytokine release). The settings on record: human PBMCs; TLR7 agonist GS-986 400 nM, 6 hours; cytokines (IL-6 and IFNα) in supernatant; read-out: TLR-7 EC50.
Source text: as §1
Cryopreserved human PBMCs from healthy donors were thawed and resuspended in RPMI-1640 media with L-glutamine (Corning) supplemented with 10% Fetal Bovine Serum (Hyclone) and 1× Penicillin-Streptomycin (Corning). After counting, the cell density was adjusted to 2 million cells/ml and incubated for 1 hour at 37° C., 5% CO2 for recovery. Following the recovery, the cells were plated by adding 50 μl per well (100,000 cells) to 384-well cell culture plates (Greiner) containing 250 nl of test antagonists in 100% DMSO per well, in a 10 points dose response in quadruplicates. PBMCs were incubated in the presence of test antagonists for one hour at 37° C., 5% CO2 before being stimulated with a TLR7 or TLR9agonist. GS-986 (Gilead Sciences) was used as the TLR7 agonist at a final concentration of 400 nM. ODN-2216 (InvivoGen) was used as the TLR9 agonist at a final concentration of 3 μM. PBMCs were incubated in the presence of the test antagonist and the TLR7 (or TLR9) agonist for an additional 6 hours at 37° C., 5% CO2. At the end of the incubation, the cell culture plates were centrifuged at 500 g for 5 min, and the cell culture supernatant was collected. The level of cytokines (IL-6 and IFNα) in the supernatant was measured by electrochemiluminescence immunoassays (Mesoscale Discovery) following manufacturer's recommended protocols. The level of cytokine measured was plotted against the test antagonist concentration and fitted to a sigmoidal function to determine the EC50, which are shown below in Table 11.

Consider `Cc1cc(-c2[nH]c3cc(C(=O)N4CCCNCC4)sc3c2C(C)C)cc(C)n1` [Example 13], for which the values for the EC50 on TLR8 and at TLR7 were 27.2 nM and 45.7 nM, respectively.
Turning to `Cc1cc(-c2[nH]c3cc(C(=O)N4CCC5(CCNC5)C4)sc3c2C(C)C)cc(C)n1` (stereo not shown) [Example 14], the half-maximal effective concentration (EC50) (in general, the concentration that produces a half-maximal response) was 586 nM at TLR8 and 311 nM on TLR7.
`Cc1cc(-c2[nH]c3cc(C(=O)N4C5CNCC4COC5)sc3c2C(C)C)cc(C)n1` [Example 15]: the EC50 on TLR8 was 72.9 nM; at TLR7, 60 nM.
The like results for `Cc1cc(-c2[nH]c3cc(C(=O)N4CC5CCC(C4)N5)sc3c2C(C)C)cc(C)n1` [Example 16] were, in that order, 15.1 nM and 43.5 nM.
For `Cc1cc(-c2[nH]c3cc(C(=O)N4C5CCC4CNC5)sc3c2C(C)C)cc(C)n1` [Example 17], the values for the EC50 on TLR8 and at TLR7 were 32 nM and 49.9 nM, respectively.
Turning to `Cc1cc(-c2[nH]c3cc(C(=O)N4CC5CC(C4)N5)sc3c2C(C)C)cc(C)n1` [Example 18], the concentration giving a half-maximal response (EC50) at TLR8 amounted to 67.2 nM; at TLR7, 200 nM.
For `Cc1cc(-c2[nH]c3cc(C(=O)N4C5CNCC4C5)sc3c2C(C)C)cc(C)n1` [Example 19] the same measures were 53.7 nM and 77.7 nM.
For `Cc1cc(-c2[nH]c3cc(C(=O)N4C[C@@H]5C[C@H]4CN5)sc3c2C(C)C)cc(C)n1` [Example 20] the same measures were 26.4 nM and 223 nM.
With `Cc1cc(-c2[nH]c3cc(C(=O)N4C[C@H]5C[C@@H]4CN5)sc3c2C(C)C)cc(C)n1` [Example 21], the EC50 is 66.2 nM on TLR8 and 70.6 nM on TLR7.
With `Cc1cc(-c2[nH]c3cc(C(=O)N(C)[C@@H]4CCNC4)sc3c2C(C)C)cc(C)n1` [Example 22], the EC50 amounted to 94 nM on TLR8 and 50.1 nM at TLR7.
For `Cc1cc(-c2[nH]c3cc(C(=O)N(C)[C@H]4CCNC4)sc3c2C(C)C)cc(C)n1` [Example 23] the same measures were 68 nM and 19.9 nM.
For `Cc1cc(-c2[nH]c3cc(C(=O)N4CC5(CNC5)C4)sc3c2C(C)C)cc(C)n1` [Example 24], the EC50 at TLR8 was found to be 408 nM; on TLR7, 504 nM.
The like results for `CO[C@@H]1CCN(C(=O)c2cc3[nH]c(-c4cc(C)nc(C)c4)c(C(C)C)c3s2)C[C@@H]1N` [Example 25] were, in that order, 136 nM and 64.4 nM.
Consider `Cc1cc(-c2[nH]c3cc(C(=O)N4CC[C@@H](F)[C@@H](N)C4)sc3c2C(C)C)cc(C)n1` [Example 27], for which the EC50 at TLR8 was 123 nM; on TLR7, 72 nM.
For `Cc1cc(-c2[nH]c3cc(C(=O)N4CCCC5NCCC54)sc3c2C(C)C)cc(C)n1` (stereo not shown) [Example 28] the same measures were 81 nM and 26 nM.
On to `Cc1cc(-c2[nH]c3cc(C(=O)N(C)[C@H]4CCCNC4)sc3c2C(C)C)cc(C)n1` [Example 29], for which the EC50 at TLR8 amounted to 92 nM; on TLR7, 60 nM.
For `Cc1cc(-c2[nH]c3cc(C(=O)N4CCC5CCNC5C4)sc3c2C(C)C)cc(C)n1` (stereo not shown) [Example 30] the same measures were 30 nM and 35.9 nM.
Take `Cc1cc(-c2[nH]c3cc(C(=O)N4CCC5CC5(N)C4)sc3c2C(C)C)cc(C)n1` (stereo not shown) [Example 31]: the EC50 on TLR8 was 68 nM; at TLR7, 40.6 nM.
As for `Cc1c(-c2[nH]c3cc(C(=O)N4CCNCC4)sc3c2C(C)C)cn2ncnc2c1C` [Example 32], the results for the EC50 on TLR8 and on TLR7 were 1.2 nM and 2.1 nM, respectively.
The like results for `Cc1cc(-c2[nH]c3cc(C(=O)N4CCNCC4)sc3c2C(C)C)cn(C)c1=O` [Example 34] were, in that order, 3 nM and 9.7 nM.
With `Cc1cc(-c2[nH]c3cc(C(=O)N(C)[C@H]4CCNC4)sc3c2C(C)C)cn(C)c1=O` [Example 36], the figures for the concentration for a half-maximal effect (EC50) at TLR8 and on TLR7 were 37 nM and 29.8 nM, respectively.
For `Cc1cc(-c2[nH]c3cc(C(=O)N4CCNCC4)sc3c2C(C)C)cn2ncnc12` [Example 38, [6-isopropyl-5-(8-methyl-[1,2,4]triazolo[1,5-a]pyridin-6-yl)-4H-thieno[3,2-b]pyrrol-2-yl]-piperazin-1-yl-methanone] the same measures were 3.4 nM and 3.5 nM.
On to `Cc1cc(-c2[nH]c3cc(C(=O)N(C)[C@H]4CCNC4)sc3c2C(C)C)cn2ncnc12` [Example 39], for which the 50% effective concentration (EC50) stood at 11.2 nM at TLR8 and 0.6 nM on TLR7.
